Literature values as cited in US20080113031A1, “Minicapsule Formulations” (priority 2004, published 2008).

B1: PAL from Rhodosporidium toruloides: phenylalanine ammonia-lyase from Rhodosporidium toruloides (protein, UniProt P11544 1-716, looked up)
Phenylalanine/tyrosine …: MAPSLDSISHSFANGVASAKQAVNGASTNLAVAGSHLPTTQVTQVDIVEKMLAAPTDSTLELDGYSLNLGDVVSAARKGRPVRVKDSDEIRSKIDKSVEFLRSQLSMSVYGVTTGFGGSADTRTEDAISLQKALLEHQLCGVLPSSFDSFRLGRGLENSLPLEVVRGAMTIRVNSLTRGHSAVRLVVLEALTNFLNHGITPIVPLRGTISASGDLSPLSYIAAAISGHPDSKVHVVHEGKEKILYAREAMALFNLEPVVLGPKEGLGLVNGTAVSASMATLALHDAHMLSLLSQSLTAMTVEAMVGHAGSFHPFLHDVTRPHPTQIEVAGNIRKLLEGSRFAVHHEEEVKVKDDEGILRQDRYPLRTSPQWLGPLVSDLIHAHAVLTIEAGQSTTDNPLIDVENKTSHHGGNFQAAAVANTMEKTRLGLAQIGKLNFTQLTEMLNAGMNRGLPSCLAAEDPSLSYHCKGLDIAAAAYTSELGHLANPVTTHVQPAEMANQAVNSLALISARRTTESNDVLSLLLATHLYCVLQAIDLRAIEFEFKKQFGPAIVSLIDQHFGSAMTGSNLRDELVEKVNKTLAKRLEQTNSYDLVPRWHDAFSFAAGTVVEVLSSTSLSLAAVNAWKVAAAESAISLTRQVRETFWSAASTSSPALSYLSPRTQILYAFVREELGVKARRGDVFLGKQEVTIGSNVSKIYEAIKSGRINNVLLKMLA

What was measured:
[1] = not given; remark: listed apart in the source

Row | Molecule | solubility in water | activity at pH 2.2 [1]
1 | COCCOC(=O)C1=C(C)NC(C)=C(C(=O)OC(C)C)C1c1cccc([N+](=O)[O-])c1 (centres unmarked) [Nimodipine] | practically insoluble | 
2 | B1 |  | no activity
